Test results from patent US20140162285A1, “Methods of Modulating Vesicular Trafficking” (The General Hospital Corporation, priority 2009, published 2014).
Peptide text beside a SMILES is read from it. * marks the point of attachment. Biotin = O=C1N[C@H]2[C@H](CS[C@H]2CCCCC(=O)*)N1

Experiments:
PH-domain of ARNO = target: T1, PH-domain of ARNO (Homo sapiens, UniProt Q99418); assay: a2N-derived peptide pull-down with GST-PH domain; type: binding
T1 construct: iv) 253-378aa, plekstrin-homology (PH) domain; made in house; host or cells: E. coli BL21(DE3)
T1 sequence (Q99418 253-378): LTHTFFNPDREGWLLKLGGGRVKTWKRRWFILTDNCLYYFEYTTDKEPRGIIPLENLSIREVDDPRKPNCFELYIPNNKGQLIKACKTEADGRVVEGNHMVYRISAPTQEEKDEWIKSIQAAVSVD
Description: FIGS. 5A-C are a set of three images of Western blots showing the identification of interaction motif of a2N that is involved in specific binding with the Sec7 domain of ARNO. 5A, The catalytic Sec7 domain of ARNO interacts with two a2N-derived peptides, a2N-01 and a2N-03, in pull-down experiments. The peptide pull-down assay was performed with six a2N-derived interaction peptides immobilized on streptavidin-beads and incubated with purified recombinant GST-only or GST-Sec7 domain. Interacting complexes were eluted and analyzed by Western blotting using monoclonal anti-GST antibodies as described below. The loading controls for GST-only (lane 1) or GST-Sec7 (lane 2) are shown. […] The peptide pull-down assay was performed with peptides a2N-01 and a2N-03 immobilized on streptavidin-beads and incubated with purified recombinant GST-PH domain (5B) or GST-PB domain (5C). Interacting complexes were eluted and analyzed by Western blotting using monoclonal anti-GST antibodies. […]
These a2N-derived peptides were immobilized by an N-terminal biotin-tag, which ensured the same efficiency and equivalent binding to streptavidin-agarose beads. […] After washing beads four times in ice-cold binding buffer, the interacting complexes were eluted by boiling in SDS-PAGE sample buffer for 10 min at 95° C., resolved by SDS-PAGE and analyzed by Western blotting using monoclonal anti-GST antibody. […]

Sec7-domain of ARNO = target: T2, Sec7-domain of ARNO (Homo sapiens, UniProt Q99418); assay: surface plasmon resonance (BIAcore T100) kinetic analysis a2N-01 peptide/Sec7-domain; type: binding; settings: ΔGbind=RTlnKD
T2 construct: iii) 61-252aa, Sec7 domain; GST (N, cleaved yes); made in house; host or cells: E. coli BL21(DE3)
T2 sequence (Q99418 61-252): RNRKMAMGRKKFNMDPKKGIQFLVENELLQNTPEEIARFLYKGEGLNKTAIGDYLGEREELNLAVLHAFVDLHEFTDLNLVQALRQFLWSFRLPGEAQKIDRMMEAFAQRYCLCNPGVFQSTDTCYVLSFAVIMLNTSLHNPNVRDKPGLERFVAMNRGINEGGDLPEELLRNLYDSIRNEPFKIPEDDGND
Source text: 6A, Kinetic analysis and estimation of a dissociation constant (KD) for interaction between full-length a2N(wt) and ARNO(wt) proteins. Sensorgrams for the binding of recombinant a2N-6His immobilized as ligand on the sensor chip, with various concentrations of 6His-ARNO as analyte are shown as follows. The responses on the sensorgram are designated in resonance units (RU). […] 6B, Kinetic analysis and estimation of KD for interaction between a2N-01 peptide and Sec7-domain of ARNO. Sensorgrams for the binding of a2N-01 peptide immobilized as ligand on the sensor chip, with various concentrations of Sec7-domain as analyte are shown as follows. The responses on the sensorgram are designated in resonance units (RU).
All reagents, including buffers, sensor chips and the amine coupling kit, were obtained from GE Healthcare. […] Dissociation of the complexes was monitored for 10 min, and then the regeneration of the sensor surfaces was performed using 0.05% SDS with 1-min injection in the running buffer at a 20 μl/min flow rate. […] The dissociation constant (KD) was determined from the kon/koff values. To estimate affinity of interaction the corresponding free energy of binding ΔGbind=RTlnKD was calculated as previously described (Marles et al., Mol Cell 14 (2004) 813-823). […]

CSCC[C@H](NC(=O)CCCC[C@@H]1SC[C@@H]2NC(=O)N[C@@H]21)C(=O)NCC(=O)N[C@@H](CO)C(=O)N[C@@H](CC(C)C)C(=O)N[C@@H](Cc1ccccc1)C(=O)N[C@@H](CCCNC(=N)N)C(=O)N[C@@H](CO)C(=O)N[C@@H](CCC(=O)O)C(=O)N[C@@H](CO)C(=O)N[C@@H](CCSC)C(=O)N[C@@H](CS)C(=O)N[C@@H](CC(C)C)C(=O)N[C@@H](C)C(=O)N[C@@H](CCC(N)=O)C(=O)N[C@@H](CC(C)C)C(=O)N[C@@H](Cc1ccccc1)C(=O)N[C@@H](CC(C)C)C(=O)N[C@@H](CS)C(=O)O [a2N-01, Bio-MGSLFRSE SMCLAQLFL-Cys] (Biotin-MGSLFRSESMCLAQLFLC-OH; N-terminus and C-terminus assumed)
interaction with PH-domain of ARNO (PH-domain of ARNO): does not interact
calculated free energy of binding (Sec7-domain of ARNO): -8.81 kcal/mol
